Measurements from ChEMBL document CHEMBL1142387, “Synthetic homoserine lactone-derived sulfonylureas as inhibitors of Vibrio fischeri quorum sensing regulator” (Bioorg Med Chem, 2008).

The compounds below were run against T1, Transcriptional activator protein LuxR (Aliivibrio fischeri, UniProt P12746) (assay: Antagonist activity at LuxR in Vibrio fischeri assessed as inhibition of N-3-oxos-hexanoyl-L-homoserine lactone induced luminescence).
T1 sequence (P12746 whole entry): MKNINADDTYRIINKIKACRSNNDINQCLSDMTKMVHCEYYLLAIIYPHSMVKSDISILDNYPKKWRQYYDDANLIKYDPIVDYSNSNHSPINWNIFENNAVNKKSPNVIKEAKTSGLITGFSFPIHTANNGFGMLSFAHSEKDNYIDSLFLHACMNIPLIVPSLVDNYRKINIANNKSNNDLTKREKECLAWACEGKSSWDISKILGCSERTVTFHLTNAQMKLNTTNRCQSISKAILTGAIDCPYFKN
Assay type: functional

Row | Compound | IC50
1 | CCCCCS(=O)(=O)NC1CCOC1=O (stereo unspecified) | 3 µM
2 | O=C1OCCC1NS(=O)(=O)NCCCc1ccccc1 (stereo unspecified) | 9.4 µM
3 | CCCCNC(=O)NC1CCOC1=O (stereo unspecified) | 5 µM
4 | CCCCCCCCCCNS(=O)(=O)NC1CCOC1=O (stereo unspecified) | 7.8 µM
5 | CCCCNS(=O)(=O)NC1CCOC1=O (stereo unspecified) | 3.6 µM
6 | CCCCCNS(=O)(=O)NC1CCOC1=O (stereo unspecified) | 2 µM
7 | O=C1OCCC1NS(=O)(=O)NCCc1ccccc1 (stereo unspecified) | 13 µM
8 | O=C1OCCC1NS(=O)(=O)NCc1ccccc1 (stereo unspecified) | 6.4 µM
9 | O=C1OCCC1NS(=O)(=O)NCCCCc1ccccc1 (stereo unspecified) | 13 µM
10 | CCCCCCCCNS(=O)(=O)NC1CCOC1=O (stereo unspecified) | 7.2 µM
11 | CCCCCCNS(=O)(=O)NC1CCOC1=O (stereo unspecified) | 5 µM
